Data on 26 compounds can be found in patent US20240217978A1 (CHONG KUN DANG PHARMACEUTICAL CORP., priority 2021, published 2024).

In general, IC50 refers to the concentration at which inhibition is half-maximal.

The target in this assay is human adenosine A2a receptor (Homo sapiens (Human), UniProt P29274). Nature of the assay: A2a receptor binding affinity, [3H]-NECA radioligand binding test. The following applies: [3H]-NECA 37 nM; membrane from HEK-293 cells transfected with human adenosine A2a receptor. The method, boiled down: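 IC50 values (μM) come from displacement of [3H]-NECA, used at 37 nM final, on human A2a receptor membranes from transfected HEK-293 cells. Incubation lasted one hour at room temperature in Tris/MgCl2/EDTA buffer, pH 7.4; filter-bound radioactivity was counted by scintillation.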
Chain of human adenosine A2a receptor (P29274 whole entry): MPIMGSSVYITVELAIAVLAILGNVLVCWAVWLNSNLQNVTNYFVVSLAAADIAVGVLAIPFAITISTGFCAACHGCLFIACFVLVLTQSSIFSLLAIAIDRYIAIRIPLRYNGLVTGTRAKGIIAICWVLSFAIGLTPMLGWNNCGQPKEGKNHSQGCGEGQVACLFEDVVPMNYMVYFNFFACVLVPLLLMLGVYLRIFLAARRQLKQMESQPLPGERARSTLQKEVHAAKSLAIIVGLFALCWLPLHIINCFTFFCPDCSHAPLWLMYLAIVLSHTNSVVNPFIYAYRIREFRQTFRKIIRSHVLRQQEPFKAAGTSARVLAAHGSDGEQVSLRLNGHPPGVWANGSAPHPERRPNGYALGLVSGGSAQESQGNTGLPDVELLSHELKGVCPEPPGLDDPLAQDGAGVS
As for `CC(C)(O)CC(=O)N1CCC(C2CCN(C(=O)[C@@H]3CCN3c3nc(N)n4nc(-c5ccco5)nc4n3)CC2)CC1` [Example 327, (S)-1-(1′-(1-(7-amino-2-(furan-2-yl)-[1,2,4]triazolo[1,5-a][1,3,5]triazin-5-yl)azetidine-2-carbonyl)-[4,4′-bipiperidin]-1-yl)-3-hydroxy-3-methylbutan-1-one], the half-maximal inhibitory concentration (IC50) was 11 nM.

For the compound `CCCCN1CCC(C2CCN(C(=O)[C@@H]3CCN3c3nc(N)n4nc(-c5ccco5)nc4n3)CC2)CC1` [Example 328, (S)-(1-(7-amino-2-(furan-2-yl)-[1,2,4]triazolo[1,5-a][1,3,5]triazin-5-yl)azetidin-2-yl)(1′-butyl-[4,4′-bipiperidin]-1-yl)methanone], the half-maximal inhibitory concentration (IC50) amounted to 25 nM. Next, `COCCN1CCC(C2CCN(C(=O)[C@@H]3CCN3c3nc(N)n4nc(-c5ccco5)nc4n3)CC2)CC1` [Example 329, (S)-(1-(7-amino-2-(furan-2-yl)-[1,2,4]triazolo[1,5-a][1,3,5]triazin-5-yl)azetidin-2-yl)(1′-(2-methoxyethyl)-[4,4′-bipiperidin]-1-yl)methanone]: 26 nM. Next, `Nc1nc(N2CCC[C@H]2C(=O)N2CCN(CC3CCC(C(F)(F)F)CC3)CC2)nc2nc(-c3ccco3)nn12` (stereo partly drawn) [Example 330, (S)-(1-(7-amino-2-(furan-2-yl)-[1,2,4]triazolo[1,5-a][1,3,5]triazin-5-yl)pyrrolidin-2-yl)(4-((4-(trifluoromethyl)cyclohexyl)methyl)piperazin-1-yl)methanone]: 11 nM. In the case of `Nc1nc(N2CCC[C@H]2C(=O)N2CCC(CN3CCC(C(F)(F)F)CC3)CC2)nc2nc(-c3ccco3)nn12` [Example 331, (S)-(1-(7-amino-2-(furan-2-yl)-[1,2,4]triazolo[1,5-a][1,3,5]triazin-5-yl)pyrrolidin-2-yl)(4-((4-(trifluoromethyl)piperidin-1-yl)methyl)piperidin-1-yl)methanone], the half-maximal inhibitory concentration (IC50) was determined as 10 nM. In the case of `C[C@H](Nc1nc(N)n2nc(-c3ccco3)nc2n1)C(=O)N1CCC(C2CCN(CC(C)(C)F)CC2)CC1` [Example 332, (S)-2-((7-amino-2-(furan-2-yl)-[1,2,4]triazolo[1,5-a][1,3,5]triazin-5-yl)amino)-1-(1′-(2-fluoro-2-methylpropyl)-[4,4′-bipiperidin]-1-yl)propan-1-one] it was 5 nM. `C[C@H](Nc1nc(N)n2nc(-c3ccco3)nc2n1)C(=O)N1CCC(C2CCN(CC(C)(C)O)CC2)CC1` [Example 333, (S)-2-((7-amino-2-(furan-2-yl)-[1,2,4]triazolo[1,5-a][1,3,5]triazin-5-yl)amino)-1-(1′-(2-hydroxy-2-methylpropyl)-[4,4′-bipiperidin]-1-yl)propan-1-one] showed an IC50 of 9 nM. Turning to `C[C@H](Nc1nc(N)n2nc(-c3ccco3)nc2n1)C(=O)N1CCC(C2CCN(CC(F)F)CC2)CC1` [Example 334, (S)-2-((7-amino-2-(furan-2-yl)-[1,2,4]triazolo[1,5-a][1,3,5]triazin-5-yl)amino)-1-(1′-(2,2-difluoroethyl)-[4,4′-bipiperidin]-1-yl)propan-1-one], the IC50 stood at 13 nM. `C[C@H](Nc1nc(N)n2nc(-c3ccco3)nc2n1)C(=O)N1CCC(C2CCN(CC(C)(F)F)CC2)CC1` [Example 335, (S)-2-((7-amino-2-(furan-2-yl)-[1,2,4]triazolo[1,5-a][1,3,5]triazin-5-yl)amino)-1-(1′-(2,2-difluoropropyl)-[4,4′-bipiperidin]-1-yl)propan-1-one]: the IC50 was 1 nM. Next, `CN(CC(F)(F)F)C1CCN(C(=O)[C@@H]2CCCN2c2nc(N)n3nc(-c4ccco4)nc3n2)CC1` [Example 337, (S)-(1-(7-amino-2-(furan-2-yl)-[1,2,4]triazolo[1,5-a][1,3,5]triazin-5-yl)pyrrolidin-2-yl)(4-(methyl(2,2,2-trifluoroethyl)amino)piperidin-1-yl)methanone]: 9 nM; `CC[C@H](Nc1nc(N)n2nc(-c3ccco3)nc2n1)C(=O)N1CCN(CC(C)(C)F)CC1` [Example 338, (S)-2-((7-amino-2-(furan-2-yl)-[1,2,4]triazolo[1,5-a][1,3,5]triazin-5-yl)amino)-1-(4-(2-fluoro-2-methylpropyl)piperazin-1-yl)butan-1-one]: 14 nM. The compound `CC(C)(F)CN1CCN(C(=O)[C@@H](Nc2nc(N)n3nc(-c4ccco4)nc3n2)C2CC2)CC1` [Example 339, (S)-2-((7-amino-2-(furan-2-yl)-[1,2,4]triazolo[1,5-a][1,3,5]triazin-5-yl)amino)-2-cyclopropyl-1-(4-(2-fluoro-2-methylpropyl)piperazin-1-yl)ethan-1-one] displayed an IC50 of 18 nM. In the case of `C[C@H](Nc1nc(N)c2nc(-c3ccco3)sc2n1)C(=O)N1CCN(C(=O)CC(C)(C)O)CC1` [Example 340, 1-(4-((7-amino-2-(furan-2-yl)thiazolo[5,4-d]pyrimidin-5-yl)-L-alanyl)piperazin-1-yl)-3-hydroxy-3-methylbutan-1-one] it was 74 nM; in that of `Nc1nc(N2CCC[C@H]2C(=O)N2CCN(CC(F)F)CC23CC3)nc2nc(-c3ccco3)nn12` [Example 341, (S)-(1-(7-amino-2-(furan-2-yl)-[1,2,4]triazolo[1,5-a][1,3,5]triazin-5-yl)pyrrolidin-2-yl)(7-(2,2-difluoroethyl)-4,7-diazaspiro[2.5]octan-4-yl)methanone], 28 nM; in that of `Nc1nc(N2CCC[C@H]2C(=O)N2CCN(CC(F)(F)F)CC23CC3)nc2nc(-c3ccco3)nn12` [Example 342, (S)-(1-(7-amino-2-(furan-2-yl)-[1,2,4]triazolo[1,5-a][1,3,5]triazin-5-yl)pyrrolidin-2-yl)(7-(2,2,2-trifluoroethyl)-4,7-diazaspiro[2.5]octan-4-yl)methanone], 8 nM. Next, `CC(F)(F)CN1CCN(C(=O)[C@@H]2CCCN2c2nc(N)n3nc(-c4ccco4)nc3n2)C2(CC2)C1` [Example 343, (S)-(1-(7-amino-2-(furan-2-yl)-[1,2,4]triazolo[1,5-a][1,3,5]triazin-5-yl)pyrrolidin-2-yl)(7-(2,2-difluoropropyl)-4,7-diazaspiro[2.5]octan-4-yl)methanone]: 9 nM; `Nc1nc(N2CCC[C@H]2C(=O)N2CCN(C3CCCCC3)CC23CC3)nc2nc(-c3ccco3)nn12` [Example 344, (S)-(1-(7-amino-2-(furan-2-yl)-[1,2,4]triazolo[1,5-a][1,3,5]triazin-5-yl)pyrrolidin-2-yl)(7-cyclohexyl-4,7-diazaspiro[2.5]octan-4-yl)methanone]: 16 nM.

The compound `Nc1nc(N2CCC[C@H]2C(=O)N2CC3(CN(CC(F)(F)F)C3)C2)nc2nc(-c3ccco3)nn12` [Example 345, (S)-(1-(7-amino-2-(furan-2-yl)-[1,2,4]triazolo[1,5-a][1,3,5]triazin-5-yl)pyrrolidin-2-yl)(6-(2,2,2-trifluoroethyl)-2,6-diazaspiro[3.3]heptan-2-yl)methanone] gave an IC50 of 13 nM. Next, `CC[C@H](Nc1nc(N)n2nc(-c3ccco3)nc2n1)C(=O)N1CCN(c2ncccn2)CC1` [Example 346, (S)-2-((7-amino-2-(furan-2-yl)-[1,2,4]triazolo[1,5-a][1,3,5]triazin-5-yl)amino)-1-(4-(pyrimidin-2-yl)piperazin-1-yl)butan-1-one]: 8 nM; `CCC(O)(CC)CN1CCN(C(=O)[C@@H]2CCN2c2nc(N)n3nc(-c4ccco4)nc3n2)CC1` [Example 347, (S)-(1-(7-amino-2-(furan-2-yl)-[1,2,4]triazolo[1,5-a][1,3,5]triazin-5-yl)azetidin-2-yl)(4-(2-ethyl-2-hydroxybutyl)piperazin-1-yl)methanone]: 17 nM. In the case of `CCC(O)(CC)CN1CCN(C(=O)[C@@H](Nc2nc(N)n3nc(-c4ccco4)nc3n2)C(C)C)CC1` [Example 348, (S)-2-((7-amino-2-(furan-2-yl)-[1,2,4]triazolo[1,5-a][1,3,5]triazin-5-yl)amino)-1-(4-(2-ethyl-2-hydroxybutyl)piperazin-1-yl)-3-methylbutan-1-one] it was 5 nM; in that of `C[C@H](Nc1nc(N)n2nc(-c3ccco3)nc2n1)C(=O)N1CCN(CC(C)(C)O)CC1` [Example 349, (S)-2-((7-amino-2-(furan-2-yl)-[1,2,4]triazolo[1,5-a][1,3,5]triazin-5-yl)amino)-1-(4-(2-hydroxy-2-methylpropyl)piperazin-1-yl)propan-1-one], 12.2 nM. In the case of `CC(C)(O)CN1CCN(C(=O)[C@@H]2CCN2c2nc(N)n3nc(-c4ccco4)nc3n2)CC1` [Example 350, (S)-(1-(7-amino-2-(furan-2-yl)-[1,2,4]triazolo[1,5-a][1,3,5]triazin-5-yl)azetidin-2-yl)(4-(2-hydroxy-2-methylpropyl)piperazin-1-yl)methanone] it was 9 nM. Consider `CC(C)[C@H](Nc1nc(N)n2nc(-c3ccco3)nc2n1)C(=O)N1CCN(CC(C)(C)O)CC1` [Example 351, (S)-2-((7-amino-2-(furan-2-yl)-[1,2,4]triazolo[1,5-a][1,3,5]triazin-5-yl)amino)-1-(4-(2-hydroxy-2-methylpropyl)piperazin-1-yl)-3-methylbutan-1-one], for which the half-inhibitory concentration (IC50) is 17 nM. Next, `CC(C)(F)CN1CCN(C(=O)[C@@H]2CCCN2c2cc3nc(-c4ccco4)nn3c(N)n2)CC1` [Example 352, (S)-(1-(5-amino-2-(furan-2-yl)-[1,2,4]triazolo[1,5-c]pyrimidin-7-yl)pyrrolidin-2-yl)(4-(2-fluoro-2-methylpropyl)piperazin-1-yl)methanone]: 6 nM; `Nc1nc(N2CCCN2C(=O)N2CCN(CC(F)(F)F)CC2)nc2nc(-c3ccco3)nn12` [Example 353, (2-(7-amino-2-(furan-2-yl)-[1,2,4]triazolo[1,5-a][1,3,5]triazin-5-yl)pyrazolidin-1-yl)(4-(2,2,2-trifluoroethyl)piperazin-1-yl)methanone]: 8 nM.
